From patent publication US4666907A, “Phenothiazine and derivatives and analogs and use as leukotriene biosynthesis inhibitors” (Merck Frosst Canada, Inc., priority 1986, dated 1987)
In brackets after ≈: the same amount, converted by molar mass. Like-named read-outs stand apart in the source and are kept apart here.

Key:
asthmatic rats = assay: Asthmatic rat assay (duration of dyspnoea after egg albumin aerosol); format: in vivo; details: po; for inhibition in vivo at 3 mg/kg: 3 mg/kg p.o.; for inhibition in vivo at 1.5 mg/kg: 1.5 mg/kg p.o.
Text: Rats were obtained from an inbred line of asthmatic rats. Both female and male rats from 200 to 300 g were used.
Egg albumin (EA), grade V, crystallized and lyophilized, was obtained from Sigma Chemical Co., St. Louis. Bordetella pertussis vaccine, containing 30×10^9 killed bacteria per ml was obtained from the Institut Armand-Frappier, Laval des Rapides, Quebec. Aluminum hydroxide was obtained from the Regeis Chemical Company, Chicago.
The challenge and subsequent respiratory recordings were carried out in a clear plastic box with internal dimensions 10×6×4 inches. The top of the box was removable; in use, it was held firmly in place by four clamps and an airtight seal was maintained by a soft rubber gasket. […] A Fleisch No. 0000 pneumotachograph was inserted into one end of the box and coupled to a Grass volumetric pressure transducer (PT5-A) which was then connected to a Beckman Type R Dynograph through appropriate couplers. While aerosilizing the antigen, the outlets were open and the pneumotachograph was isolated from the chamber. The outlets were closed and the pneumotachograph and the chamber were connected during the recording or the respiratory patterns. For challenge, 2 ml of a 3% solution of antigen in saline was placed into each nebulizer and the aerosol was generated with air from a small Potter diaphragm pump operating at 10 psi and a flow of 8 liters/minutes.
Rats were sensitized by injection (s.c.) 1 ml of a suspension containing 1 mg EA and 200 mg aluminum hydroxide in saline. Simultaneously, they received an injection (i.p.) of 0.5 ml of B. pertussis vaccine. They were used between days 14 and 18 postsensitization. In order to eliminate the serotonin component of the response, rats were pretreated intravenously 5 minutes prior to aerosol challenge with […] methylserzide. Rats were then exposed to an aerosol of 3% EA in saline for exactly 1 minute, then their respiratory profiles were recorded for a further 25-30 minutes. The duration of continuous dyspnoea was measured from the respiratory recordings.
Compounds were generally administered either intraperitoneally 1 hour prior to challenge or orally 11/2 hours prior to challenge. They were either dissolved in dimethylsulfoxide or suspended in 0.1% methocel and 0.5% Tween 80. The volume injected has 2 ml kg^-1 (intraperitoneally) or 10 ml kg^-1 (orally). Prior to oral treatment rats were starved overnight. Their activity was determined in terms of their ability to decrease the duration of symptoms of dyspnoea in comparison with a group of vehicle-treated controls. Usually, a compound was evaluated at a series of doses and an ED50 was determined. This was defined as the dose (mg/kg) which would inhibit the duration of symptoms by 50%.

[1] = tested on: sensitized guinea pig trachea; assay: Antigen challenge 'in vitro' assay (egg albumin-induced contraction of sensitized tracheal chains); format: cell-based; details: Cavia porcellus; for inhibition at 10 µg/mL / inhibition at 1 µg/mL: read-out: In Vitro Antigen Challenge % Inhibition; for inhibition at 3 µg/mL: at 3 μg/ml
Method: Male guinea pigs weighing 300-350 g were sensitized by injecting (i.p.) 0.5 ml of a suspension containing 0.4 mg of egg albumin (Ovalbumin, Grade V, Sigma Chemical Co.) and 4.0 g aluminum hydroxide in 19.6 ml of saline. Two weeks were permitted for sensitization to occur.
Three sensitized guinea pigs were stunned and exsanguinated. The tracheas were removed, freed of adhering tissue and divided longitudinally by cutting through the cartilaginous tissue directly opposite the muscle insertion. Each opened trachea was then transected between every second cartilage. Four of the cut sections were tied together, end to end in a series with No. 0.7 silk thread ensuring that the tracheal muscles were all in the same vertical plane. Thus, each chain consisted of tissue from three different animals.
The chain so formed was then suspended under 1 g of tension (by silk ties at each end) in a 20 ml organ bath containing 10 ml of modified^1 Krebs-Henseleit buffer solution gassed with 95% O2 and 5% CO2 at 37° C. Mepyramine (0.55 μg/ml) and indomethacin (2.67 μg/ml were added to the buffer to avoid the contribution of histamine receptors and cyclooxygenase products to the contraction. To record responses one end of the tracheal chain was attached to a Gould Statham UC-2 force displacement transducer which was connected to a Beckman Type R-dynograph.The preparations were allowed to equilibrate for one hour during which time the tissues were automatically washed (10 ml volume displacement) ever 6 minutes.
After the equilibration period the tissues were primed with methacholine (3 μg/lml; 1.5×10^-5 M), washed and allowed to recover to baseline. The tissues were treated again with a second dose of methacholine, washed, allowed to return to baseline and washed for an additional hour.
Two chains were used as a control. These were incubated in a concentration of egg albumin sufficient to induce an average contraction of 50-80% of the methacholine response.
Each compound to be tested was added to two other baths (at a final concentration in each bath of 10 μg/ml or lower) 15 minutes prior to challenging the fresh chains with egg albumin.
The response of the challenged tissue was expressed as a percentage of the methacholine maximum. The % inhibition for each compound was then calculated. Compounds which at 10 μg/ml (final concentration) inhibited the egg albumin response by 50% or more were retested at a lower concentration.

[2] = tested on: Mouse peritoneal macrophages; assay: Mouse macrophage assay (zymosan-stimulated arachidonic acid metabolites, Leukotriene C4); format: cell-based; details: read-out: Macrophage IC50
Method: Mouse peritoneal macrophages were treated sequentially with arachidonic acid (labelled with tritium); the compound being evaluated as an inhibitor, and a stimulator (zymosan). Metabolites derived from arachidonic acid (PGE2, 6-Keto PG-F1@ and Leukotriene C4) were separated from the incubation medium by extraction and chromatography, and then quantitated by determining the amount of radioactivity (cpm) associated with each of them. […] (This protocol is identical to that described in the reference except that the radioactivity herein associated with the LTC4 was determined by counting an aliquot of the final aqueous solution directly rather than chromatographing it first).
Reference: Humes, J. L. et al., J. Biol. Chem. 257, 1591-4 (1982).

[3] = tested on: LTB4 formation in rat PMN; assay: Rat polymorphonuclear leukocyte (P.M.N.) assay, LTB4 formation; format: cell-based; details: A-23187, LTB4
Method: Rats under ether anesthesia are injected (i.p.) with 8 ml of a suspension of sodium caseinate (6 grams in ca. 50 ml water). After 15-24 hours the rats are sacrificed (CO2) and the cells from the peritoneal cavity are recovered by lavage with 20 ml of buffer (Eages MEM containing 30 mM HEPES adjusted to pH 7.4 with NaOH). The cells are pelleted (350×g, 5 min.), resuspended in buffer with vigorous shaking, filtered through lens paper, recentrifuged and finally suspended in buffer at a concentration of […]. A 500 μl aliquot of PMN suspension and test compound are preincubated for 2 minutes at 37° C., followed by the addition of 10 μM A-23187. The suspension is stirred for an additional 4 minutes then bioassayed for LTB4 content by adding an aliquot to a second 500 μl portion of the PMN at 37° C. The LTB4 produced in the first incubation causes aggregation of the second PMN, which is measured as a change in light transmission. The size of the assay aliquot is chosen to give a submaximal transmission change (usually […]) for the untreated control. The percentage inhibition of LTB4 formation is calculated from the ratio of transmission change in the sample to the transmission change in the compound-free control.

[4] = mouse peritoneal macrophages, zymosan

Row | Compound | inhibition at 10 µg/mL ([1]; at 10 μg/ml) [%] | IC50 [2, 4] [µg/mL] | IC50 [3] [µg/mL] | other results
1 | COc1ccc2c(c1Cl)Sc1cc(F)ccc1N2C |  |  |  | inhibition in vivo at 3 mg/kg (asthmatic rats): 42%
2 | COc1ccc2c(c1Cl)[S+]([O-])c1ccccc1N2 (centres unmarked) |  |  |  | inhibition in vivo at 3 mg/kg (asthmatic rats): 56%
3 | O=S1(=O)c2ccccc2Nc2ccc(O)c(O)c21 |  |  |  | inhibition in vivo at 1.5 mg/kg (asthmatic rats): 65%
4 | CC(=O)N1c2ccccc2Sc2c1ccc(O)c2Cl |  |  |  | inhibition in vivo at 3 mg/kg (asthmatic rats): 61%
5 | CC(=O)Oc1ccc2c(c1Cl)Sc1ccccc1N2C(C)=O |  |  |  | inhibition in vivo at 3 mg/kg (asthmatic rats): 58%
6 | COc1ccc2c(c1Cl)Sc1cc(F)ccc1N2C(C)=O |  |  |  | inhibition in vivo at 3 mg/kg (asthmatic rats): 36%
7 | COc1ccc2c(c1Cl)[S+]([O-])c1cc(F)ccc1N2C (centres unmarked) |  |  |  | inhibition in vivo at 3 mg/kg (asthmatic rats): 52%
8 | COc1ccc2c(c1Cl)Oc1ccccc1N2C |  |  |  | inhibition in vivo at 0.3 mg/kg (asthmatic rats; 0.3 mg/kg p.o.): 49%
9 | Clc1cccc2c1Sc1ccccc1N2 [Compound 3] | 37 | 0.01 to 0.1 | 0.05 to 0.5 (≈ 0.214 to 2.14 µM) | 
10 | Cc1cccc2c1Nc1ccccc1S2 [Compound 4] | 76 | 5 |  | 
11 | FC(F)(F)c1ccc2c(c1)Nc1ccccc1S2 [Compound 5] | 7 | 0.1 |  | 
12 | Oc1ccc2c(c1)Sc1ccccc1N2 [Compound 6] | 100 | 0.1 to 1 | 0.016 (≈ 0.0743 µM) | 
13 | CC(=O)Oc1ccc2c(c1)Sc1ccccc1N2 [Compound 7] | 60 | 0.01 to 0.1 | 0.005 (≈ 0.0194 µM) | 
14 | CC(=O)c1ccc2c(c1)Nc1ccccc1S2 [Compound 8] | 60 | 0.2 |  | 
15 | Oc1ccc2c(c1Cl)Sc1ccccc1N2 [Compound 9] |  |  | 0.005 (≈ 0.02 µM) | inhibition at 3 µg/mL [1]: 97%
16 | Cc1ccc(S(=O)(=O)Oc2ccc3c(c2Cl)Sc2ccccc2N3)cc1 [Compound 10] |  |  | 0.1 to 1 (≈ 0.248 to 2.48 µM) | inhibition at 3 µg/mL [1]: 14%
17 | CC(=O)Oc1ccc2c(c1Cl)Sc1ccccc1N2 [Compound 11] | 100 | 0.1 |  | 
18 | COc1ccc2c(c1Cl)Sc1ccccc1N2 [Compound 12] |  |  | 0.01 to 0.1 (≈ 0.0379 to 0.379 µM) | inhibition at 1 µg/mL ([1]; at 1 μg/ml): 60%

Row | Compound | inhibition at 10 µg/mL ([1]; at 10 μg/ml) [%] | IC50 [2, 4] [µg/mL] | IC50 [3] [µg/mL] | other results
19 | COc1ccc2c(c1)Sc1cc(Cl)ccc1N2 [Compound 13] | 22 | 0.12 |  | 
20 | Clc1ccc2c(c1)Sc1cc(Cl)ccc1N2 [Compound 14] | 1 | 0.01 to 0.1 | 0.005 to 0.05 (≈ 0.0186 to 0.186 µM) | 
21 | O=[N+]([O-])c1ccc2c(c1)Sc1cc([N+](=O)[O-])ccc1N2 [Compound 15] | 21 | 0.0016 to 0.008 |  | 
22 | COc1ccc2c(c1)Sc1c(cc(OC)c(O)c1Br)N2 [Compound 16] |  |  | 0.01 (≈ 0.0282 µM) | 
23 | CN(C)c1ccc2c(c1)Sc1cc(N(C)C)ccc1N2 [Compound 17] |  | 5 |  | 
24 | Oc1cccc2c1Nc1ccccc1S2 [Compound 18] | 3 |  | 0.05 to 0.5 (≈ 0.232 to 2.32 µM) | 
25 | CC(=O)Oc1ccc2c(c1)Sc1cc(F)ccc1N2 [Compound 19] |  |  | 0.005 (≈ 0.0182 µM) | 
26 | CC(C)C(=O)Oc1ccc2c(c1Cl)Sc1ccccc1N2 [Compound 20] | 65 |  | 0.005 to 0.05 (≈ 0.0156 to 0.156 µM) | 
27 | CC(=O)N1c2ccccc2Sc2ccccc21 [Compound 21] |  | 5 |  | 
28 | COc1ccc2c(c1Cl)Sc1ccccc1N2C(C)=O [Compound 22] | 91 | 1 | 1 (≈ 3.27 µM) | 
29 | FC(F)(F)c1ccc2c(c1)Nc1ccccc1O2 [Compound 23] |  |  | 0.05 to 0.5 (≈ 0.199 to 1.99 µM) | inhibition at 3 µg/mL [1]: 40%
30 | c1ccc2c(c1)Nc1ccccc1O2 [Compound 24] |  |  | 5 (≈ 27.3 µM) | inhibition at 1 µg/mL [1]: 88%; IC50 ([2]; Mus musculus): 0.1 µg/mL
31 | CC(=O)Oc1ccc2c(c1)Sc1cccc(Cl)c1N2C [Compound 25] |  |  | 0.5 (≈ 1.64 µM) | inhibition at 3 µg/mL [1]: 1 to 9%
32 | COc1ccc2c(c1Cl)Sc1ccccc1N2C [Compound 26] | 3 | 1 | 5 (≈ 18 µM) | 
33 | CC(C)C(=O)Oc1ccc2c(c1Cl)Sc1ccccc1N2C [Compound 27] |  |  | 0.005 to 0.05 (≈ 0.015 to 0.15 µM) | inhibition at 3 µg/mL [1]: 6%
34 | c1ccc2c(c1)Nc1ccccc1S2 [drawing 34] |  |  | 0.4 (≈ 2.01 µM) | inhibition at 10 µg/mL [1]: 100%; IC50 ([2]; Mus musculus): 0.06 µg/mL
35 | c1ccc2c(c1)Nc1ccccc1O2 [drawing 75] |  |  |  | inhibition in vivo at 1.5 mg/kg (asthmatic rats): 51%
